Assay results: patent US20250179047A1, “5-[7-(3,4-DIHYDRO-1H-ISOQUINOLINE-2-CARBONYL)-1,2,3,4 TETRAHYDROISOQUINOLIN-6-YL]-1H-PYRROLE-3-CARBOXAMIDE DERIVATIVES, PHARMACEUTICAL COMPOSITIONS CONTAINING THEM AND THEIR USES AS PRO-APOPTOTIC AGENTS” (LES LABORATOIRES SERVIER, priority 2022, published 2025)

Tests used:
BCL2 D103Y = BCL2 D103Y (Homo sapiens, UniProt P10415, D103Y); assay: TR-FRET competitive binding assay, BCL2 D103Y; details: Ki determined from IC50, read-out: TR_FRET EKI_Bcl2 D103Y
Outline: (§1)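 Terbium-labelled N-terminal Halo-fusion BCL2 or BCLXL (E. coli), 0.5 nM, competed against fluorescein-labelled PUMA peptide (2 or 20 nM) for 2 h at 23° C in 50 mM Hepes pH 7.5, 150 mM NaCl, 5% DMSO. TR-FRET 520/495 nm ratio gave IC50 by four-parameter fit; Ki derived from IC50.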

BCL2 G101V [1] = molecular target: BCL2 G101V (Homo sapiens, UniProt P10415, G101V); assay: TR-FRET competitive binding assay, BCL2 G101V; details: BCL2 G101V; Ki determined from IC50; read-out: TR_FRET EKI_Bcl2 G101V
Outline: as §1

BCL2 G101V [2] = assay: TR-FRET competitive binding assay, BCL2 G101V; parameters: species or system human; details: ratio Ki BCL2 G101V / Ki BCL2 WT
Outline: as §1

BCL2 WT = BCL2 WT (Homo sapiens (Human), UniProt P10415); assay: TR-FRET competitive binding assay, BCL2 WT; details: Ki determined from IC50, read-out: TR_FRET EKI_Bcl2 WT
Outline: as §1

KMS-12-PE Bcl-2 WT = assay: In vitro cytotoxicity CellTiter-Glo 48 h, KMS-12-PE Bcl-2 WT; assay type: cell-based; details: Homo sapiens, KMS-12-PE, C50 = concentration needed to reach 50% of the cellular viability
Outline: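 KMS-12-PE myeloma cells were lentivirally transduced with wild-type or G101V-mutant Bcl-2 and sorted by TagRFP. They were exposed to compounds as 11-point dose responses for 48 h at 37 °C, 5% CO2. Viability was read by CellTiter-Glo ATP luminescence, and C50 was the concentration giving 50% viability.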

BCLXL WT = BCLXL WT (Homo sapiens (Human), UniProt Q07817); assay: TR-FRET competitive binding assay, BCLXL WT; details: for Ki: BCLXL WT, Ki determined from IC50, read-out: TR_FRET EKI BclxL; for TR_FRET EKI BCLxL/WT selectivty ratio: ratio Ki BCLxL / Ki BCL2 WT
Outline: as §1

Sequence of BCLXL WT (Q07817 other isoform, or with tags, fused parts or gaps): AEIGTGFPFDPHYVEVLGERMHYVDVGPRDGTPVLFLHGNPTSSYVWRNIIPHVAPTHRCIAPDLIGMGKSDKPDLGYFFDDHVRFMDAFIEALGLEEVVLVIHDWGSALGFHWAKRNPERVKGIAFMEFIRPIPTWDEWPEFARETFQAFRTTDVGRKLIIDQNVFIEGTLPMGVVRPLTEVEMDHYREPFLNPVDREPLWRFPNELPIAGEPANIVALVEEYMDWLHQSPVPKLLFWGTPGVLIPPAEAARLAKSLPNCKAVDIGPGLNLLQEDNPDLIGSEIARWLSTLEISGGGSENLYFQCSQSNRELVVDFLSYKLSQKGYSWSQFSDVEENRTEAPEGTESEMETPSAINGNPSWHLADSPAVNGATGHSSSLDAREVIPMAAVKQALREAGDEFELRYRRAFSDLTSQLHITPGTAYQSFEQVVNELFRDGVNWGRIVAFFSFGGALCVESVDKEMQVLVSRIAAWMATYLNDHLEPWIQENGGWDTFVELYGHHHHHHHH

| Ki (BCL2 D103Y) [nM] | Ki (BCL2 G101V [1]) [nM] | TR_FRET EKI G101V/WT selectivty ratio (BCL2 G101V [2]) | Ki (BCL2 WT) [nM] | Ki (BCLXL WT) [nM] | TR_FRET EKI BCLxL/WT selectivty ratio (BCLXL WT) | Structure (SMILES) | IC50 (KMS-12-PE Bcl-2 WT) [µM] |
| --- | --- | --- | --- | --- | --- | --- | --- |
| 0.12 | 0.7 | 13.3 | 0.05 | 8.6 | 168.6 | Cc1c(C(=O)N(c2ccccc2)c2cc(C#N)n(C(F)F)c2C)cc(-c2cc3c(cc2C(=O)N2Cc4ccccc4C[C@H]2C)CN(C(=O)Cc2ccc(OCCN4CCOCC4)cc2)CC3)n1C [Example 214, N-[5-cyano-1-(difluoromethyl)-2-methyl-pyrrol-3-yl]-1,2-dimethyl-5-[7-[(3R)-3-methyl-3,4-dihydro-1H-isoquinoline-2-carbonyl]-2-[2-[4-(2-morpholinoethoxy)phenyl]acetyl]-3,4-dihydro-1H-isoquinolin-6-yl]-N-phenyl-pyrrole-3-carboxamide] | 0.0035 |
| 0.13 | 4.6 | 80.9 | 0.06 | 16 | 280.7 | Cc1c(N(C(=O)c2cc(-c3cc4c(cc3C(=O)N3Cc5ccccc5C[C@H]3C)CN(C(=O)Cc3ccc(OCCN5CCOCC5)cc3)CC4)n(C)c2C)c2ccccc2)cnn1C(F)F [Example 215, N-[1-(difluoromethyl)-5-methyl-pyrazol-4-yl]-1,2-dimethyl-5-[7-[(3R)-3-methyl-3,4-dihydro-1H-isoquinoline-2-carbonyl]-2-[2-[4-(2-morpholinoethoxy)phenyl]acetyl]-3,4-dihydro-1H-isoquinolin-6-yl]-N-phenyl-pyrrole-3-carboxamide] | 0.0147 |
| 0.33 | 6.4 | 125.5 | 0.05 | 2.6 | 50.1 | Cc1c(C(=O)N(c2ccccc2)c2cnn(C)c2)cc(-c2cc3c(cc2C(=O)N2Cc4ccccc4C[C@H]2C)CN(C(=O)Cc2cccc(C4CCN(C)CC4)c2)CC3)n1C [Example 216, 1,2-dimethyl-5-[7-[(3R)-3-methyl-3,4-dihydro-1H-isoquinoline-2-carbonyl]-2-[2-[3-(1-methyl-4-piperidyl)phenyl]acetyl]-3,4-dihydro-1H-isoquinolin-6-yl]-N-(1-methylpyrazol-4-yl)-N-phenyl-pyrrole-3-carboxamide] | 0.0449 |
| 0.09 | 2 | 88.7 | 0.02 | 0.6 | 24.9 | Cc1c(C(=O)N(c2ccccc2)c2cnn(C)c2)cc(-c2cc3c(cc2C(=O)N2Cc4ccccc4C[C@H]2C)CN(C(=O)Cc2cccc(N4CC5(CN(C)C5)C4)c2)CC3)n1C [Example 217, 1,2-dimethyl-5-[2-[2-[3-(6-methyl-2,6-diazaspiro[3.3]heptan-2-yl)phenyl]acetyl]-7-[(3R)-3-methyl-3,4-dihydro-1H-isoquinoline-2-carbonyl]-3,4-dihydro-1H-isoquinolin-6-yl]-N-(1-methylpyrazol-4-yl)-N-phenyl-pyrrole-3-carboxamide] | 0.0453 |
| 0.08 | 1.5 | 45.3 | 0.03 | 13.8 | 418.1 | Cc1c(C(=O)N(c2ccccc2)c2cccc(C#N)c2)cc(-c2cc3c(cc2C(=O)N2Cc4ccccc4C[C@H]2C)CN(C(=O)Cc2ccc(OCCN4CCOCC4)cc2)CC3)n1C [Example 218, N-(3-cyanophenyl)-1,2-dimethyl-5-[7-[(3R)-3-methyl-3,4-dihydro-1H-isoquinoline-2-carbonyl]-2-[2-[4-(2-morpholinoethoxy)phenyl]acetyl]-3,4-dihydro-1H-isoquinolin-6-yl]-N-phenyl-pyrrole-3-carboxamide] | 0.0142 |

Continued, molecule first:

| Structure (SMILES) | Ki (BCL2 D103Y) [nM] | Ki (BCL2 G101V [1]) [nM] | TR_FRET EKI G101V/WT selectivty ratio (BCL2 G101V [2]) | Ki (BCL2 WT) [nM] | Ki (BCLXL WT) [nM] | TR_FRET EKI BCLxL/WT selectivty ratio (BCLXL WT) | IC50 (KMS-12-PE Bcl-2 WT) [µM] |
| --- | --- | --- | --- | --- | --- | --- | --- |
| Cc1c(C(=O)N(c2ccccc2)c2cnn(CCN(C)C)c2)cc(-c2cc3c(cc2C(=O)N2Cc4ccccc4C[C@H]2C)CN(C(=O)Cc2ccc(OCCC4CCOCC4)cc2)CC3)n1C [Example 207, N-[l-[2-(dimethylamino)ethyl]pyrazol-4-yl]-1,2-dimethyl-5-[7-[(3R)-3-methyl-3,4-dihydro-1H-isoquinoline-2-carbonyl]-2-[2-[4-(2-tetrahydropyran-4-ylethoxy)phenyl]acetyl]-3,4-dihydro-1H-isoquinolin-6-yl]-N-phenyl-pyrrole-3-carboxamide] | 0.04 | 1.4 | 68.8 | 0.02 | 3 | 150.0 | 0.023 |
| Cc1c(C(=O)N(c2ccccc2)c2cnn(C)c2)cc(-c2cc3c(cc2C(=O)N2Cc4ccccc4C[C@H]2C)CN(C(=O)Cc2ccc(OCCN(C)C)cc2)CC3)n1C [Example 208, 5-[2-[2-[4-[2-(dimethylamino)ethoxy]phenyl]acetyl]-7-[(3R)-3-methyl-3,4-dihydro-1H-isoquinoline-2-carbonyl]-3,4-dihydro-1H-isoquinolin-6-yl]-1,2-dimethyl-N-(1-methylpyrazol-4-yl)-N-phenyl-pyrrole-3-carboxamide] | 0.12 | 3.7 | 83.8 | 0.04 | 8.8 | 200.0 | 0.0301 |
| COc1ccc(N(C(=O)c2cc(-c3cc4c(cc3C(=O)N3Cc5ccccc5C[C@H]3C)CN(C(=O)Cc3ccc(OCCN5CCOCC5)cc3)CC4)n(C)c2C)c2ccc(F)cc2)cc1C#N [Example 209, N-(3-cyano-4-methoxy-phenyl)-N-(4-fluorophenyl)-1,2-dimethyl-5-[7-[(3R)-3-methyl-3,4-dihydro-1H-isoquinoline-2-carbonyl]-2-[2-[4-(2-morpholinoethoxy)phenyl]acetyl]-3,4-dihydro-1H-isoquinolin-6-yl]pyrrole-3-carboxamide] | 0.21 | 3.8 | 47.5 | 0.08 | 23 | 291.1 | 0.0486 |
| CCn1cc(N(C(=O)c2cc(-c3cc4c(cc3C(=O)N3Cc5ccccc5C[C@H]3C)CN(C(=O)Cc3ccc(OCCN5CCOCC5)cc3)CC4)n(C)c2C)c2ccccc2)c(C)n1 [Example 210, N-(1-ethyl-3-methyl-pyrazol-4-yl)-1,2-dimethyl-5-[7-[(3R)-3-methyl-3,4-dihydro-1H-isoquinoline-2-carbonyl]-2-[2-[4-(2-morpholinoethoxy)phenyl]acetyl]-3,4-dihydro-1H-isoquinolin-6-yl]-N-phenyl-pyrrole-3-carboxamide] | 0.11 | 4.1 | 118.3 | 0.04 | 29 | 828.6 | 0.0395 |
| Cc1c(C(=O)N(c2ccccc2)c2cnn(C(F)F)c2)cc(-c2cc3c(cc2C(=O)N2Cc4ccccc4C[C@H]2CF)CN(C(=O)Cc2ccc(OCCN4CCOCC4)cc2)CC3)n1C [Example 211, N-[1-(difluoromethyl)pyrazol-4-yl]-5-[7-[(3S)-3-(fluoromethyl)-3,4-dihydro-1H-isoquinoline-2-carbonyl]-2-[2-[4-(2-morpholinoethoxy)phenyl]acetyl]-3,4-dihydro-1H-isoquinolin-6-yl]-1,2-dimethyl-N-phenyl-pyrrole-3-carboxamide] | 0.18 | 5.3 | 72.1 | 0.07 | 26 | 351.4 | 0.0157 |
| Cc1c(C(=O)N(c2ccccc2)c2cnn(C(F)F)c2)cc(-c2cc3c(cc2C(=O)N2Cc4ccccc4C[C@H]2C)CN(C(=O)Cc2ccc(C#CCN4CCOCC4)cc2)CC3)n1C [Example 212, N-[1-(difluoromethyl)pyrazol-4-yl]-1,2-dimethyl-5-[7-[(3R)-3-methyl-3,4-dihydro-1H-isoquinoline-2-carbonyl]-2-[2-[4-(3-morpholinoprop-1-ynyl)phenyl]acetyl]-3,4-dihydro-1H-isoquinolin-6-yl]-N-phenyl-pyrrole-3-carboxamide] | 0.13 | 1.7 | 37.0 | 0.05 | 4.8 | 104.3 | 0.006 |
| Cc1c(N(C(=O)c2cc(-c3cc4c(cc3C(=O)N3Cc5ccccc5C[C@H]3C)CN(C(=O)Cc3ccc(OCCN(C)C)cc3F)CC4)n(C)c2C)c2ccccc2)cc(C#N)n1C [Example 213, N-(5-cyano-1,2-dimethyl-pyrrol-3-yl)-5-[2-[2-[4-[2-(dimethylamino)ethoxy]-2-fluoro-phenyl]acetyl]-7-[(3R)-3-methyl-3,4-dihydro-1H-isoquinoline-2-carbonyl]-3,4-dihydro-1H-isoquinolin-6-yl]-1,2-dimethyl-N-phenyl-pyrrole-3-carboxamide] | 0.03 | 0.4 | 46.6 | 0.01 | 1 | 108.9 | 0.0053 |
